Data: patent US20200181117A1, “SUBSTITUTED 3-HETEROARYLOXY-1H-PYRAZOLES AND SALTS THEREOF AND THEIR USE AS HERBICIDAL ACTIVE SUBSTANCES” (BAYER CROPSCIENCE AKTIENGESELLSCHAFT, priority 2017, published 2020)

Legend:
Assay type in all cases: in vivo
Alopecurus myosuroides [1] = assay: Post-emergence herbicidal action; details: 1280 g/ha, rated visually after about 3 weeks vs untreated controls
Method in brief: (§1)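 Visual % activity versus untreated controls (100% = plants died, 0% = like controls), scored about 3 weeks after a foliar spray. Greenhouse plants in sandy loam were treated at one-leaf stage with 1280 g/ha in aqueous spray containing 0.5% additive, 600 l/ha.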

Polygonum convolvulus [2] = assay: Post-emergence herbicidal action; details: 1280 g/ha, rated visually after about 3 weeks vs untreated controls
Method in brief: as §1

Pharbitis purpurea [3] = assay: Post-emergence herbicidal action; details: 1280 g/ha, rated visually after about 3 weeks vs untreated controls
Method in brief: as §1

Hordeum murinum [4] = assay: Post-emergence herbicidal action; details: 1280 g/ha, rated visually after about 3 weeks vs untreated controls
Method in brief: as §1

Stellaria media [5] = assay: Post-emergence herbicidal action; details: 1280 g/ha, rated visually after about 3 weeks vs untreated controls
Method in brief: as §1

Viola tricolor [6] = assay: Post-emergence herbicidal action; details: 1280 g/ha, rated visually after about 3 weeks vs untreated controls
Method in brief: as §1

Setaria viridis [7] = assay: Post-emergence herbicidal action; details: 1280 g/ha, rated visually after about 3 weeks vs untreated controls
Method in brief: as §1

Veronica persica = assay: Post-emergence herbicidal action; details: 1280 g/ha, rated visually after about 3 weeks vs untreated controls
Method in brief: as §1

Matricaria inodora [8] = assay: Post-emergence herbicidal action; details: 1280 g/ha, rated visually after about 3 weeks vs untreated controls
Method in brief: as §1

Lolium rigidum [9] = assay: Post-emergence herbicidal action; details: 1280 g/ha, rated visually after about 3 weeks vs untreated controls
Method in brief: as §1

Abutilon theophrasti [10] = assay: Post-emergence herbicidal action; details: 1280 g/ha, rated visually after about 3 weeks vs untreated controls
Method in brief: as §1

Amaranthus retroflexus [11] = assay: Post-emergence herbicidal action; details: 1280 g/ha, rated visually after about 3 weeks vs untreated controls
Method in brief: as §1

Echinochloa crus-galli [12] = assay: Post-emergence herbicidal action; details: 1280 g/ha, rated visually after about 3 weeks vs untreated controls
Method in brief: as §1

Alopecurus myosuroides [13] = assay: Pre-emergence herbicidal action; details: 1280 g/ha, scored visually after about 3 weeks vs untreated controls
Method in brief: (§2)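 Seeds were sown in pots and covered with soil; compounds formulated as WP or EC were sprayed onto the soil surface as aqueous suspension or emulsion with 0.5% additive at 600 l/ha water, 1280 g/ha. Greenhouse growth; visual % activity versus untreated controls after about 3 weeks (100% = plants dead).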

Polygonum convolvulus [14] = assay: Pre-emergence herbicidal action; details: 1280 g/ha, scored visually after about 3 weeks vs untreated controls
Method in brief: as §2

Hordeum murinum [15] = assay: Pre-emergence herbicidal action; details: 1280 g/ha, scored visually after about 3 weeks vs untreated controls
Method in brief: as §2

Stellaria media [16] = assay: Pre-emergence herbicidal action; details: 1280 g/ha, scored visually after about 3 weeks vs untreated controls
Method in brief: as §2

Avena fatua = assay: Pre-emergence herbicidal action; details: 1280 g/ha, scored visually after about 3 weeks vs untreated controls
Method in brief: as §2

Viola tricolor [17] = assay: Pre-emergence herbicidal action; details: 1280 g/ha, scored visually after about 3 weeks vs untreated controls
Method in brief: as §2

Setaria viridis [18] = assay: Pre-emergence herbicidal action; details: 1280 g/ha, scored visually after about 3 weeks vs untreated controls
Method in brief: as §2

Matricaria inodora [19] = assay: Pre-emergence herbicidal action; details: 1280 g/ha, scored visually after about 3 weeks vs untreated controls
Method in brief: as §2

Lolium rigidum [20] = assay: Pre-emergence herbicidal action; details: 1280 g/ha, scored visually after about 3 weeks vs untreated controls
Method in brief: as §2

Abutilon theophrasti [21] = assay: Pre-emergence herbicidal action; details: 1280 g/ha, scored visually after about 3 weeks vs untreated controls
Method in brief: as §2

Amaranthus retroflexus [22] = assay: Pre-emergence herbicidal action; details: 1280 g/ha, scored visually after about 3 weeks vs untreated controls
Method in brief: as §2

Echinochloa crus-galli [23] = assay: Pre-emergence herbicidal action; details: 1280 g/ha, scored visually after about 3 weeks vs untreated controls
Method in brief: as §2

Pharbitis purpurea [24] = assay: Pre-emergence herbicidal action; details: 1280 g/ha, scored visually after about 3 weeks vs untreated controls
Method in brief: as §2

| SMILES | herbicidal activity on Alopecurus myosuroides (Alopecurus myosuroides [1]) [%] | herbicidal activity on Polygonum convolvulus (Polygonum convolvulus [2]) [%] | herbicidal activity on Pharbitis purpurea (Pharbitis purpurea [3]) [%] | herbicidal activity on Hordeum murinum (Hordeum murinum [4]) [%] | herbicidal activity on Stellaria media (Stellaria media [5]) [%] | herbicidal activity on Viola tricolor (Viola tricolor [6]) [%] | herbicidal activity on Setaria viridis (Setaria viridis [7]) [%] | herbicidal activity on Matricaria inodora (Matricaria inodora [8]) [%] | herbicidal activity on Abutilon theophrasti (Abutilon theophrasti [10]) [%] | herbicidal activity on Amaranthus retroflexus (Amaranthus retroflexus [11]) [%] | herbicidal activity on Echinochloa crus-galli (Echinochloa crus-galli [12]) [%] | herbicidal activity on Alopecurus myosuroides (Alopecurus myosuroides [13]) [%] | herbicidal activity on Polygonum convolvulus (Polygonum convolvulus [14]) [%] | herbicidal activity on Hordeum murinum (Hordeum murinum [15]) [%] | herbicidal activity on Stellaria media (Stellaria media [16]) [%] | herbicidal activity on Avena fatua (Avena fatua) [%] | herbicidal activity on Viola tricolor (Viola tricolor [17]) [%] | herbicidal activity on Setaria viridis (Setaria viridis [18]) [%] | herbicidal activity on Matricaria inodora (Matricaria inodora [19]) [%] | herbicidal activity on Lolium rigidum (Lolium rigidum [20]) [%] | also measured |
| --- | --- | --- | --- | --- | --- | --- | --- | --- | --- | --- | --- | --- | --- | --- | --- | --- | --- | --- | --- | --- | --- |
| COc1cnc(Oc2nn(C)c(C)c2Sc2ccccc2)nc1 [Example I-140] | 100 | 100 | 100 | 80 | 90 | 100 | 100 | 100 | 100 | 100 | 100 | 100 | 100 | 100 | 100 | 100 | 100 | 100 | 100 | 100 | herbicidal activity on Veronica persica (Veronica persica): 100%; herbicidal activity on Lolium rigidum (Lolium rigidum [9]): 80%; herbicidal activity on Abutilon theophrasti (Abutilon theophrasti [21]): 100%; herbicidal activity on Amaranthus retroflexus (Amaranthus retroflexus [22]): 100%; herbicidal activity on Echinochloa crus-galli (Echinochloa crus-galli [23]): 100% |
| Cc1c(Sc2ccccc2)c(Oc2ncccn2)nn1C [Example I-126] | 100 | 100 | 100 | 80 | 100 | 100 | 100 | 80 | 100 | 100 | 100 | 100 | 100 | 100 | 100 | 100 | 100 | 100 | 100 | 100 | herbicidal activity on Pharbitis purpurea (Pharbitis purpurea [24]): 90%; herbicidal activity on Abutilon theophrasti (Abutilon theophrasti [21]): 100%; herbicidal activity on Amaranthus retroflexus (Amaranthus retroflexus [22]): 100%; herbicidal activity on Echinochloa crus-galli (Echinochloa crus-galli [23]): 100% |
